{"source": "patent US6740306B2", "about": "“Imidazotriazinone-containing compositions for nasal administration” (Bayer Aktiengesellschaft, priority 2002, dated 2004)", "assay": "Benzyl alcohol as additive on nasal administration of cGMP PDE inhibitors", "type": "in vivo", "note": "Entries after “also recorded” stand apart in the source; their conditions may differ.", "data": [{"smiles": "OCc1ccccc1", "note": "[benzyl alcohol]", "values": [{"measurement": "Ability to reduce or prevent the disadvantages occurring on nasal administration of cGMP PDE inhibitors", "result": "unable to reduce or prevent the disadvantages; also recorded: unsuitable for overcoming the disadvantages"}, {"measurement": "Local irritation of the nasal mucosa", "result": "led to local irritation of the nasal mucosa"}]}]}
